Measured values from patent US4992437A, “Thienodiazepine compounds and their pharmaceutical use” (Yoshitomi Pharmaceutical Industries, Ltd., priority 1987, dated 1991).
Read-outs that look alike come from different tables or passages of the source.

Columns and labels:
CCK receptor (pancreas) = biological target: T1, CCK receptor (pancreas) (Canis lupus familiaris, UniProt Q5D0K2); experiment: CCK receptor-binding, pancreas (125I-CCK-8); design: species or system male mongrel adult dog
T1 construct: from tissue; host or cells: dog pancreas membranes (whole pancreas, homogenized and centrifuged)
T1 sequence (Q5D0K2 1-428): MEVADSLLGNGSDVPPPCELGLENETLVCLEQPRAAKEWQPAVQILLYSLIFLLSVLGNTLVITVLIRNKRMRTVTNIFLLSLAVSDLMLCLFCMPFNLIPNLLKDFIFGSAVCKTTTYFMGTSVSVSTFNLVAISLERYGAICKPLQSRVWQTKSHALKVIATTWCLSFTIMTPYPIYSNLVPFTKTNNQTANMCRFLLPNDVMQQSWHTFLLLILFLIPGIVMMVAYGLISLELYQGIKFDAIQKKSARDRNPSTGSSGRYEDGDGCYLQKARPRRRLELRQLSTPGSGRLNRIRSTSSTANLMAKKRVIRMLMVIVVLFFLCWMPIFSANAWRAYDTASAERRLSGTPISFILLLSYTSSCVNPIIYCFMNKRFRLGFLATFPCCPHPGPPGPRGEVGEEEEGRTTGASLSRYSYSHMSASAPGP
Protocol: The entire pancreas of a male mongrel adult dog was extracted and the fat tissues thereof were removed. The residual portion was homogenized in 50 mM tris hydrochloride (pH 7.5) (Blinkman·Polytron PT20). After the filtration with nylon cloth (120 mesh) followed by centrifugation (50,000×g, for 12 minutes), the obtained sediment was homogenized in a tris buffer solution in the same manner as mentioned above and the homogenate was centrifuged. The obtained sediment was suspended in a buffer solution for binding assay (5 mM magnesium chloride, chloride, 5 mM dithiothreitol, 2 mg/ml bovine serum albumin, 0.1 mg/ml bacitracin, and 50 mM tris hydrochloride, pH 7.2), containing 0.14 mg/ml trypsin-inhibitor (soy bean), and the suspension was used as the receptor source.

Acute toxicity test = format: in vivo; settings: oral; 6 male mice; observed for consecutive 5 days
Description: The acute toxicity of the compounds of the present invention was studied with the use of 6 male mice.

CCK-8 = experiment: Effects on gastric excreting capability (Gastric emptying test), CCK-8 challenge; format: in vivo, male ddY mice
Protocol: At 5 minutes' lapse thereafter, 0.1 ml of a 1.5% aqueous solution of methyl cellulose containing 0.05% phenolred (Sigma) was orally administered. After 15 minutes, the stomach was extracted and the gastric contents were mixed with a 10% aqueous solution of trichloroacetic acid. After the removal of the proteins, the residue was centrifuged at 3000 rpm for 10 minutes. To the supernatant was added a 1N solution of sodium hydroxide and the mixture was again centrifuged. Thereafter, OD560 value of the supernatant was measured by the spectrophotometer (Hitachi 200-10 type) to estimate the minimum effective dose (MED).

CCK receptor (brain) = biological target: T2, CCK receptor (brain); experiment: CCK receptor-binding, brain (125I-CCK-8)
T2 construct: Brain; from tissue

[1] = pancreas membranes of dog, 125I-CCK-8, 20° C., 30 minutes, read-out: CCK binding, IC50 Pancreas

T2 sequence (P32239 whole entry): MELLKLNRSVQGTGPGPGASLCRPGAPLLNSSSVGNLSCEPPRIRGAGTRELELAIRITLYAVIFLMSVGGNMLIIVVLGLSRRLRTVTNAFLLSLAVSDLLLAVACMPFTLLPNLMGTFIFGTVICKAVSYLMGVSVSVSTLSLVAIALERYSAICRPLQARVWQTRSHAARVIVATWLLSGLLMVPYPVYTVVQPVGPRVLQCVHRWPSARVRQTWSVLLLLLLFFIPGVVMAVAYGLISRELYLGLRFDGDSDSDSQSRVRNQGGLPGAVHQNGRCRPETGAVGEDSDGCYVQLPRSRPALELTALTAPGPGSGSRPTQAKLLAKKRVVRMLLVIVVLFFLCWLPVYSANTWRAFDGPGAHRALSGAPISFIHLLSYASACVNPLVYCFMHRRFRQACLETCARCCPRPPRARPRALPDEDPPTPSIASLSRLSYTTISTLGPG

With `CCc1cc2c(s1)-n1c(C)nnc1C(NC(=O)c1cc3ccccc3[nH]1)N=C2c1ccccc1Cl` (stereo not shown) [Compound A, 4-(2-Chlorophenyl)-2-ethyl-6-(2-indolecarboxamido)-9-methyl-6H-thieno[3,2-f][1,2,4]triazolo[4,3-a][1,4]diazepine] the IC50 (CCK receptor (pancreas)) was 0.6 nM, the acute toxicity (Acute toxicity test) was “low toxicity” and the minimal effective dose at 0.03 mg/kg (CCK-8; Mus musculus, po, 25 min; read-out: Gastric Emptying MED (minimum effective dose)) was 0.3 to 1 mg/kg. It also gave an IC50 (CCK receptor (brain)) of 1.8 nM.

For `CN1C(=O)C(NC(=O)c2cc3ccccc3[nH]2)N=C(c2ccccc2)c2ccccc21` [Example L-364718, N-(2,3-Dihydro-1-methyl-2-oxo-5-phenyl-1H-1,4-benzodiazepin-3-yl)-1H-indole-2-carboxamide, reference compound], the minimal effective dose at 0.03 mg/kg (CCK-8; Mus musculus, po, 25 min, read-out: Gastric Emptying MED (minimum effective dose)) was 0.1 to 0.3 mg/kg.

Work on CCK-4 yielded an IC50 (CCK receptor (pancreas); [1]) of 800 nM.

“CCK-8: CCK-8 which consists of the 8 amino acids at the C terminus of CCK” gave an IC50 (CCK receptor (pancreas); [1]) of 0.6 nM.
